The text below walks through data of patent US4385060A, “Penicillins” (Beecham Group Limited, priority 1979, dated 1983).

The nature of series [1]: Oral absorption in fasting human volunteers (syrup): serum ticarcillin, AUC and urinary excretion by bio-assay, Experiments A-D. It is filed as in vivo. Here is the method:
To obtain the results shown in table 1, the two esters of ticarcillin were each given to a panel of fasting human volunteers in a syrup formulation in an amount equivalent to provide either 200 or 400 mg (as stated in table 1) of the free ticarcillin after the expected in vivo hydrolysis. Periodic blood samples were taken from the volunteers and each assayed for ticarcillin content by a standard bio-assay technique. The urine excreted by each volunteer within the 6 hours following administration was also collected and assayed for the free ticarcillin. All three parameters (viz the urinary excretion level, the peak serum concentration achieved and the total area under the curve when the serum concentration is plotted against time) are indications of the minimum degree to which the penicillin ester has been absorbed after oral administration and then hydrolysed in vivo.

A short description of series [2]: Intact ester in blood and urine after oral administration to human volunteers. It is filed as in vivo. The following applies: urine, read-out: ester present in urine.
A short description of series [3]: Oral administration as syrup equivalent to 400 mg ticarcillin, phenyl vs p-tolyl ester (data of British Pat. No. 1,455,529). It is filed as in vivo, man. The source says: The improved bioavailability can also be seen from the individual mean serum concentration figures in table 1. […] This can be seen by the comparison with the phenyl ester and for convenience the data from specification No. 1,455,529 is repeated in table 3 below:
(Administration as syrup containing equivalent

The conditions of series [4]: in words; cited from earlier work.

Entries after “also recorded” stand apart in the source; their conditions may differ.

As to `Cc1ccccc1OC(=O)C(C(=O)N[C@@H]1C(=O)N2[C@@H]1SC(C)(C)[C@@H]2C(=O)O)c1ccsc1` (stereo partly drawn) [o-tolyl, 6β-[2-(2'-methylphenoxycarbonyl)-2-thien-3'-ylacetamido]penicillanic acid], the “urinary recovery of ticarcillin compared to the phenyl ester” value in series [1] (in words) is reported as “greater urinary recovery”. The “bioavailability of ticarcillin after oral administration compared to the phenyl ester” value in series [1] (in words, AUC, listed as α-ortho-tolyl ester) was “considerably greater; also recorded: two- to three-fold greater”. The “bioavailability as measured by AUC higher than for the phenyl ester” value in series [1] (o-tolyl vs phenyl ester, oral, man, overall) was 120-220%. For the same compound, the dose excreted at 6 h in series [2] is about 2%.

On to `Cc1ccc(OC(=O)C(C(=O)N[C@@H]2C(=O)N3[C@@H]2SC(C)(C)[C@@H]3C(=O)O)c2ccsc2)cc1` (stereo partly drawn) [p-tolyl, α-para-tolyl mono-ester of α-carboxy-3-thienylmethyl penicillin], for which the “oral absorption compared to the ortho ester” value in series [3] (in words, p-tolyl vs α-ortho ester) was “much less well absorbed”. For the same compound, in series [3] (p-tolyl vs phenyl ester, table 3), the “statistical significance of differences in mean serum concentrations” value is “not statistically significant”. Moreover, the “oral absorption in man” value in series [4] is listed as “high degree of oral absorption in man”.

Turning to `CC1(C)S[C@@H]2[C@H](NC(=O)C(C(=O)Oc3ccccc3)c3ccsc3)C(=O)N2[C@H]1C(=O)O` (stereo partly drawn) [phenyl, α-phenyl ester of α-carboxy-3-thienylmethyl penicillin, reference compound], the dose excreted at 6 h in series [2] was about 1%.
